Experimental data reported in patent US12161722B2, “Bifunctional heterocyclic compound having BTK degradation function via ubiquitin proteasome pathway, and use thereof” (KOREA RESEARCH INSTITUTE OF CHEMICAL TECHNOLOGY, priority 2021, dated 2024).

Biological target: T1, WT BTK protein (Homo sapiens, UniProt Q06187)
T1 construct: measured for intracellular BTK protein levels by Western blotting; endogenous in cells; host or cells: TMD-8 or RAMOS cells
Assay: BTK protein degradation assay (Western blotting), WT BTK
Format: cell-based
Settings: concentration range accounting for 50% degradation of WT BTK protein, TMD-8 or RAMOS cells, 24 hours
Summary of the method: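 TMD-8 cells (1×10^6 cells/mL) treated 24 h with compound serial dilutions, then lysed in RIPA. Equal protein loads analysed by Western blot for BTK with GAPDH/β-actin as loading controls; activity binned by concentration giving 50% WT BTK degradation.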

T1 sequence (Q06187 whole entry): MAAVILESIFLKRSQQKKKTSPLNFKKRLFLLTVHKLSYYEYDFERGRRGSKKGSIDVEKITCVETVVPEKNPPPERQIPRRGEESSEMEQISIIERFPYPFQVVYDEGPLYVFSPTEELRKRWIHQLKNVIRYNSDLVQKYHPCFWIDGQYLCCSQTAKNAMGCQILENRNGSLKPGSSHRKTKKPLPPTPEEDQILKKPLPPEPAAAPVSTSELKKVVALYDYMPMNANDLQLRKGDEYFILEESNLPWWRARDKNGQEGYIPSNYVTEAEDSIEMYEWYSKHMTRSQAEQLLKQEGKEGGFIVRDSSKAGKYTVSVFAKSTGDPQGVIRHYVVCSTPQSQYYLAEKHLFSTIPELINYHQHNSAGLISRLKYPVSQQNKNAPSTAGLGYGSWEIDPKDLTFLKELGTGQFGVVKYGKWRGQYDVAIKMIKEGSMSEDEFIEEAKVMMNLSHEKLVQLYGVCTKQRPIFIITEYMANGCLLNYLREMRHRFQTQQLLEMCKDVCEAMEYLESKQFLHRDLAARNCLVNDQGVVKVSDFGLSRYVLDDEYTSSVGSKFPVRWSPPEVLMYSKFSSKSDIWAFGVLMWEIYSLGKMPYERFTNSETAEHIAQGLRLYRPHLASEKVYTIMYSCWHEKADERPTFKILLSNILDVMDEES

DC50	SMILES
0.1 to 10 nM	Cc1cccc(C)c1Nc1nn(C)c2nc(Nc3ccc4c(c3)CN(C(=S)C3CCN(c5cc6c(cc5F)C(=O)N(C5CCC(=O)NC5=O)C6=O)CC3)CC4)ncc12 (stereo not shown) [Compound 233, 5-(4-(7-((3-((2,6-dimethylphenyl)amino)-1-methyl-1H-pyrazolo[3,4-d]pyrimidin-6-yl)amino)-1,2,3,4-tetrahydroisoquinoline-2-carbonothioyl)piperidin-1-yl)-2-(2,6-dioxopiperidin-3-yl)-6-fluoroisoindoline-1,3-dione]
0.1 to 10 nM	Cc1cccc(C)c1Nc1nn(C)c2nc(Nc3ccc4c(c3)CN(C(=S)C3CCN(C(=O)C5CCN(c6ccc7c(c6)C(=O)N(C6CCC(=O)NC6=O)C7=O)CC5)CC3)CC4)ncc12 (stereo not shown) [Compound 234, 5-(4-(4-(7-((3-((2,6-dimethylphenyl)amino)-1-methyl-1H-pyrazolo[3,4-d]pyrimidin-6-yl)amino)-1,2,3,4-tetrahydroisoquinoline-2-carbonothioyl)piperidine-1-carbonyl)piperidin-1-yl)-2-(2,6-dioxopiperidin-3-yl)isoindoline-1,3-dione]
0.1 to 10 nM	Cc1cccc(C)c1Nc1nn(C)c2nc(Nc3ccc4c(c3)CN(C(=S)C3CCN(C(=O)CNc5ccc6c(c5)C(=O)N(C5CCC(=O)NC5=O)C6=O)CC3)CC4)ncc12 (stereo not shown) [Compound 235, 5-((2-(4-(7-((3-((2,6-dimethylphenyl)amino)-1-methyl-1H-pyrazolo[3,4-d]pyrimidin-6-yl)amino)-1,2,3,4-tetrahydroisoquinoline-2-carbonothioyl)piperidin-1-yl)-2-oxoethyl)amino)-2-(2,6-dioxopiperidin-3-yl)isoindoline-1,3-dione]
0.1 to 10 nM	Cc1cccc(C)c1Nc1nn(C)c2nc(Nc3ccc4c(c3)CN(C(=S)C3CCN(C(=O)COc5ccc6c(c5)C(=O)N(C5CCC(=O)NC5=O)C6=O)CC3)CC4)ncc12 (stereo not shown) [Compound 236, 5-(2-(4-(7-((3-((2,6-dimethylphenyl)amino)-1-methyl-1H-pyrazolo[3,4-d]pyrimidin-6-yl)amino)-1,2,3,4-tetrahydroisoquinoline-2-carbonothioyl)piperidin-1-yl)-2-oxoethoxy)-2-(2,6-dioxopiperidin-3-yl)isoindoline-1,3-dione]
0.1 to 10 nM	Cc1cccc(C)c1Nc1nn(C)c2nc(Nc3ccc4c(c3)CN(CC3CCN(c5ccc6c(c5)CN(C5CCC(=O)NC5=O)C6=O)CC3)CC4)ncc12 (stereo not shown) [Compound 237, 3-(5-(4-((7-((3-((2,6-Dimethylphenyl)amino)-1-methyl-1H-pyrazolo[3,4-d]pyrimidin-6-yl)amino)-3,4-dihydroisoquinolin-2 (1H)-yl)methyl)piperidin-1-yl)-1-oxoisoindolin-2-yl)piperidin-2,6-one]
0.1 to 10 nM	Cc1cccc(C)c1Nc1nn(C)c2nc(Nc3ccc(N4CCN(c5ccc6c(c5)C(=O)N(C5CCC(=O)NC5=O)C6=O)CC4)cc3)ncc12 (stereo not shown) [Compound 238, 5-(4-(4-((3-((2,6-dimethylphenyl)amino)-1-methyl-1H-pyrazolo[3,4-d]pyrimidin-6-yl)amino)phenyl)piperazin-1-yl)-2-(2,6-dioxopiperidin-3-yl)isoindoline-1,3-dione]
10 to 1000 nM	Cc1cccc(C)c1Nc1nn(C)c2nc(Nc3ccc(N4CCN(c5cc6c(cc5F)C(=O)N(C5CCC(=O)NC5=O)C6=O)CC4)cc3)ncc12 (stereo not shown) [Compound 239, 5-(4-(4-((3-((2,6-Dimethylphenyl)amino)-1-methyl-1H-pyrazolo[3,4-d]pyrimidin-6-yl)amino)phenyl)piperazin-1-yl)-2-(2,6-dioxopiperidin-3-yl)-6-fluoroisoindoline-1,3-dione]
0.1 to 10 nM	Cc1cccc(C)c1Nc1nn(C)c2nc(Nc3ccc4c(c3)CN(C(=O)/C(C#N)=C/C3CCN(C(=O)C5CCN(c6ccc7c(c6)C(=O)N(C6CCC(=O)NC6=O)C7=O)CC5)CC3)CC4)ncc12 (stereo not shown) [Compound 240, (E)-2-(7-((3-((2,6-Dimethylphenyl)amino)-1-methyl-1H-pyrazolo[3,4-d]pyrimidin-6-yl)amino)-1,2,3,4-tetrahydroisoquinoline-2-carbonyl)-3-(1-(1-(2-(2,6-dioxopiperidin-3-yl)-1,3-dioxoisoindolin-5-yl)piperidine-4-carbonyl)piperidin-4-yl)acrylonitrile]
0.1 to 10 nM	Cc1cccc(C)c1Nc1nn(C)c2nc(Nc3ccc4c(c3)CN(C(=O)/C(C#N)=C/C3CCN(C(=O)COc5ccc6c(c5)C(=O)N(C5CCC(=O)NC5=O)C6=O)CC3)CC4)ncc12 (stereo not shown) [Compound 241, (E)-2-(7-((3-((2,6-dimethylphenyl)amino)-1-methyl-1H-pyrazolo[3,4-d]pyrimidin-6-yl)amino)-1,2,3,4-tetrahydroisoquinoline-2-carbonyl)-3-(1-(2-((2-(2,6-dioxopiperidin-3-yl)-1,3-dioxoisoindolin-5-yl)oxy)acetyl)piperidin-4-yl)acrylonitrile]
0.1 to 10 nM	Cc1cccc(C)c1Nc1nn(C)c2nc(Nc3ccc4c(c3)CN(C(=O)C3(F)CCN(c5ccc6c(c5)C(=O)N(C5CCC(=O)NC5=O)C6=O)CC3)CC4)ncc12 (stereo not shown) [Compound 243, 5-(4-(7-((3-((2,6-dimethylphenyl)amino)-1-methyl-1H-pyrazolo[3,4-d]pyrimidin-6-yl)amino)-1,2,3,4-tetrahydroisoquinoline-2-carbonyl)-4-fluoropiperidin-1-yl)-2-(2,6-dioxopiperidin-3-yl)isoindoline-1,3-dione]
0.1 to 10 nM	Cc1cccc(C)c1Nc1nn(C)c2nc(Nc3ccc4c(c3)CN(C(=O)C3(F)CCN(c5cc6c(cc5F)C(=O)N(C5CCC(=O)NC5=O)C6=O)CC3)CC4)ncc12 (stereo not shown) [Compound 244, 5-(4-(7-((3-((2,6-dimethylphenyl)amino)-1-methyl-1H-pyrazolo[3,4-d]pyrimidin-6-yl)amino)-1,2,3,4-tetrahydroisoquinoline-2-carbonyl)-4-fluoropiperidin-1-yl)-2-(2,6-dioxopiperidin-3-yl)-6-fluoroisoindoline-1,3-dione]
0.1 to 10 nM	Cc1cccc(C)c1Nc1nn(C)c2nc(Nc3ccc(N4CCN(CC5CCN(c6cc7c(cc6F)C(=O)N(C6CCC(=O)NC6=O)C7)CC5)CC4)cc3)ncc12 (stereo not shown) [Compound 245, 3-(5-(4-((4-(4-((3-((2,6-Dimethylphenyl)amino)-1-methyl-1H-pyrazolo[3,4-d]pyrimidin-6-yl)amino)phenyl)piperazin-1-yl)methyl)piperidin-1-yl)-6-fluoro-1-oxoisoindolin-2-yl)piperidin-2,6-one]
0.1 to 10 nM	Cc1cccc(C)c1Nc1nn(C)c2nc(Nc3ccc4c(c3)CN(C(=O)C3(F)CCN(C(=O)C5CCN(c6ccc7c(c6)C(=O)N(C6CCC(=O)NC6=O)C7=O)CC5)CC3)CC4)ncc12 (stereo not shown) [Compound 246, 5-(4-(4-(7-((3-((2,6-dimethylphenyl)amino)-1-methyl-1H-pyrazolo[3,4-d]pyrimidin-6-yl)amino)-1,2,3,4-tetrahydroisoquinoline-2-carbonyl)-4-fluoropiperidine-1-carbonyl)piperidin-1-yl)-2-(2,6-dioxopiperidin-3-yl)isoindoline-1,3-dione]
0.1 to 10 nM	Cc1cccc(C)c1Nc1nn(C)c2nc(Nc3ccc4c(c3)CN(C(=O)C3(F)CCN(C(=O)CNc5ccc6c(c5)C(=O)N(C5CCC(=O)NC5=O)C6=O)CC3)CC4)ncc12 (stereo not shown) [Compound 247, 5-((2-(4-(7-((3-((2,6-Dimethylphenyl)amino)-1-methyl-1H-pyrazolo[3,4-d]pyrimidin-6-yl)amino)-1,2,3,4-tetrahydroisoquinoline-2-carbonyl)-4-fluoropiperidin-1-yl)-2-oxoethyl)amino)-2-(2,6-dioxopiperidin-3-yl)isoindoline-1,3-dione]
0.1 to 10 nM	Cc1cccc(C)c1Nc1nn(C)c2nc(Nc3ccc4c(c3)CN(C(=O)C3(F)CCN(C(=O)COc5ccc6c(c5)C(=O)N(C5CCC(=O)NC5=O)C6=O)CC3)CC4)ncc12 (stereo not shown) [Compound 248, 5-(2-(4-(7-((3-((2,6-Dimethylphenyl)amino)-1-methyl-1H-pyrazolo[3,4-d]pyrimidin-6-yl)amino)-1,2,3,4-tetrahydroisoquinoline-2-carbonyl)-4-fluoropiperidin-1-yl)-2-oxoethoxy)-2-(2,6-dioxopiperidin-3-yl)isoindoline-1,3-dione]
0.1 to 10 nM	Cc1cccc(C)c1Nc1nn(C)c2nc(Nc3ccc(F)c(C4=CCN(CC5CCN(c6ccc7c(c6)C(=O)N(C6CCC(=O)NC6=O)C7=O)CC5)CC4)c3)ncc12 (stereo not shown) [Compound 250, 5-(4-((4-(5-((3-((2,6-Dimethylphenyl)amino)-1-methyl-1H-pyrazolo[3,4-d]pyrimidin-6-yl)amino)-2-fluorophenyl)-3,6-dihydropyridin-1 (2H)-yl)methyl)piperidin-1-yl)-2-(2,6-dioxopiperidin-3-yl)isoindoline-1,3-dione]
0.1 to 10 nM	Cc1cccc(C)c1Nc1nn(C)c2nc(Nc3ccc(C4CCN(C(=O)C5(F)CCN(c6ccc7c(c6)C(=O)N(C6CCC(=O)NC6=O)C7=O)CC5)CC4)cc3)ncc12 (stereo not shown) [Compound 253, 5-(4-(4-(4-((3-((2,6-dimethylphenyl)amino)-1-methyl-1H-pyrazolo[3,4-d]pyrimidin-6-yl)amino)phenyl)piperidine-1-carbonyl)-4-fluoropiperidin-1-yl)-2-(2,6-dioxopiperidin-3-yl)isoindoline-1,3-dione]
10 to 1000 nM	Cc1cccc(C)c1Nc1nn(C)c2nc(Nc3ccc(C4CCN(C(=O)C5(F)CCN(c6cc7c(cc6F)C(=O)N(C6CCC(=O)NC6=O)C7=O)CC5)CC4)cc3)ncc12 (stereo not shown) [Compound 254, 5-(4-(4-(4-((3-((2,6-dimethylphenyl)amino)-1-methyl-1H-pyrazolo[3,4-d]pyrimidin-6-yl)amino)phenyl)piperidine-1-carbonyl)-4-fluoropiperidin-1-yl)-2-(2,6-dioxopiperidin-3-yl)-6-fluoroisoindoline-1,3-dione]
0.1 to 10 nM	Cc1cccc(C)c1Nc1nn(C)c2nc(Nc3ccc(N4CCN(CC5CCN(C(=O)c6ccc7c(c6)CN(C6CCC(=O)NC6=O)C7=O)CC5)CC4)cc3)ncc12 (stereo not shown) [Compound 256, 3-(5-(4-((4-(4-((3-((2,6-Dimethylphenyl)amino)-1-methyl-1H-pyrazolo[3,4-d]pyrimidin-6-yl)amino)phenyl)piperazin-1-yl)methyl)piperidine-1-carbonyl)-1-oxoisoindolin-2-yl)piperidin-2,6-one]
